Some test systems named below: NCI-H226 lung; SW-620 colon; UACC-62 melanoma; CCRF-CEM leukemia; A498 renal; K-562 leukemia; SF-268 CNS; HCC-2998 colon; KM12 colon; UACC-257 melanoma.
Holding throughout (experiment): DTP human tumour cell line panel, 48 h

Values joined by “and” are separate entries in the source; they are usually repeats but may differ in a detail not shown here. Equal entries are not always repeated.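 Each compound was tested at five concentrations against cells in 96-well plates for 48 hours. GI50 = concentration required for 50% inhibition of growth. TGI marks complete inhibition of growth.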 Some results are limits rather than exact numbers.

As to `C[C@@H]1CC[C@H]2[C@@H](C)C(O)O[C@@H]3O[C@]4(C)CC[C@@H]1[C@]32OO4` (some centres not stated), the GI50 in the experiment with NCI-H226 lung was 1.56 µM; with SW-620 colon it was 0.347 µM; with UACC-62 melanoma, 0.56 µM; in the experiment on CCRF-CEM leukemia, 0.568 µM; in the experiment with A498 renal it was 2.89 µM; with K-562 leukemia, 0.337 µM. For the same compound, the GI50 in the experiment with SF-268 CNS is 1.4 µM; with HCC-2998 colon, 2.6 µM; in the experiment on KM12 colon, 0.213 µM; with UACC-257 melanoma it was 0.748 µM. In addition, the TGI is 40.9 µM in the experiment on NCI-H226 lung; 17 µM in the experiment with SW-620 colon; more than 76.9 µM in the experiment on UACC-62 melanoma; 35 µM with CCRF-CEM leukemia; more than 96.6 µM with A498 renal; 4.57 µM in the experiment on K-562 leukemia. Moreover, the TGI in the experiment with SF-268 CNS was more than 62.7 µM; in the experiment on HCC-2998 colon, more than 63.2 µM; in the experiment on KM12 colon it was 8.78 µM; in the experiment on UACC-257 melanoma, more than 100 µM.
On to `COC(=O)C(C(=O)C(=O)Nc1ccc(C)cc1)c1nc2ccc([N+](=O)[O-])cc2[nH]c1=O` (configuration not stated), for which the TGI in the experiment with NCI-H226 lung, with SW-620 colon, in the experiment on UACC-62 melanoma, with CCRF-CEM leukemia, in the experiment on A498 renal and in the experiment on K-562 leukemia was more than 100 µM throughout. The TGI with SF-268 CNS, in the experiment with HCC-2998 colon, in the experiment with KM12 colon and in the experiment with UACC-257 melanoma was more than 100 µM in each case.
For the compound `NC(Cc1ccccc1)C(=O)OCN1C(=O)C2C3C=CC(C2C1=O)C1C2C(=O)N(COC(=O)C(N)Cc4ccccc4)C(=O)C2C31` (configuration not stated), the total growth inhibition concentration (TGI) with NCI-H226 lung was > 100 µM and 72.1 µM; in the experiment with SW-620 colon it was 51.3 µM and 52.8 µM; in the experiment on UACC-62 melanoma it was 41.4 µM and 37.7 µM; with CCRF-CEM leukemia it was 50.3 µM and > 100 µM; in the experiment on A498 renal, more than 100 µM; in the experiment with K-562 leukemia, 63.2 µM and > 100 µM. For the same compound, the TGI with SF-268 CNS was 48.3 µM and 41.6 µM; in the experiment on HCC-2998 colon, more than 100 µM; in the experiment with KM12 colon, 40.7 µM and 40.1 µM; with UACC-257 melanoma, 67.1 µM and 50.1 µM. Further, the GI50 was > 100 µM and 46 µM with A498 renal; 55.4 µM with HCC-2998 colon.
In the case of `Nc1nc(N)c2c(n1)NC(c1sc(Cl)nc1Cl)CC(c1ccccc1)=N2` (configuration not stated), the GI50 in the experiment with NCI-H226 lung is 13.7 µM; in the experiment with SW-620 colon it was 3.42 µM; with UACC-62 melanoma it was 3.05 µM; with CCRF-CEM leukemia it was 3.21 µM; with A498 renal, 1.28 µM; in the experiment with K-562 leukemia, 1.68 µM. For the same compound, the GI50 was 5.68 µM in the experiment on SF-268 CNS, 10.3 µM with HCC-2998 colon, 3.79 µM in the experiment on KM12 colon and 6.77 µM with UACC-257 melanoma. For the same compound, the TGI in the experiment on NCI-H226 lung came out at 35.1 µM; in the experiment with SW-620 colon, 13.3 µM; with UACC-62 melanoma, 13.9 µM; with CCRF-CEM leukemia, 16.9 µM; in the experiment on A498 renal it was 8.92 µM; with K-562 leukemia it was 20.9 µM. The TGI with SF-268 CNS was 22.5 µM; in the experiment on HCC-2998 colon, 21.9 µM; in the experiment on KM12 colon, 15.3 µM; in the experiment with UACC-257 melanoma, 20.9 µM.
Consider `CNC(=O)c1cc(Oc2ccc3nc(NC(=O)Nc4ccc(CN5CCOCC5)c(C(F)(F)F)c4)sc3c2)ccn1`, for which the GI50 is 1.73 µM in the experiment with NCI-H226 lung; 3.31 µM with SW-620 colon; 1.44 µM with UACC-62 melanoma; 2.73 µM with CCRF-CEM leukemia; 1.9 µM in the experiment with A498 renal; 1.53 µM in the experiment on K-562 leukemia. For the same compound, the GI50 in the experiment on SF-268 CNS is 3.22 µM; in the experiment with HCC-2998 colon, 3 µM; with KM12 colon, 0.446 µM; with UACC-257 melanoma, 2.16 µM. For the same compound, the TGI with NCI-H226 lung is 4.3 µM; in the experiment with SW-620 colon it was 10 µM; with UACC-62 melanoma it was 4.58 µM; in the experiment with CCRF-CEM leukemia, more than 100 µM; in the experiment with A498 renal it was 4.05 µM; in the experiment on K-562 leukemia, more than 100 µM. For the same compound, the TGI in the experiment on SF-268 CNS came to 14.6 µM; in the experiment on HCC-2998 colon, 7.11 µM; in the experiment with KM12 colon, 2.31 µM; in the experiment with UACC-257 melanoma it was 5.59 µM.
For the compound `NC1=NN(c2ccccc2)C(=O)C1C(=O)C(=O)Nc1ccc(Cl)cc1` (configuration not stated), the TGI in the experiment on NCI-H226 lung, in the experiment with SW-620 colon, with UACC-62 melanoma, with CCRF-CEM leukemia, with A498 renal and in the experiment on K-562 leukemia was more than 100 µM each time. In addition, the TGI in the experiment on SF-268 CNS, in the experiment on HCC-2998 colon, with KM12 colon and in the experiment on UACC-257 melanoma was more than 100 µM in each case.
`C/C(=N\Nc1ccccc1)c1sc(-c2nc(C)c(/C(C)=N/Nc3ccccc3)s2)nc1C`: the TGI with NCI-H226 lung is more than 95.7 µM; with SW-620 colon, more than 35.2 µM; in the experiment on UACC-62 melanoma, 13.6 µM; in the experiment on CCRF-CEM leukemia, more than 100 µM; with A498 renal, more than 100 µM; with K-562 leukemia it was 69.9 µM. In addition, the TGI was more than 64.6 µM in the experiment with SF-268 CNS, 19.9 µM with HCC-2998 colon, more than 100 µM in the experiment on KM12 colon and more than 70.4 µM in the experiment with UACC-257 melanoma.
Take `C[C@@H](C1CC[C@H]2[C@@H]3[C@@H]4O[C@@H]4[C@@]4(O)CC=CC(=O)[C@]4(C)[C@H]3C[C@H](O)[C@]12C)[C@H]1C[C@]2(C)O[C@]2(C)C(=O)O1` (some centres not stated): the TGI in the experiment on NCI-H226 lung, in the experiment on SW-620 colon, in the experiment with UACC-62 melanoma, in the experiment with CCRF-CEM leukemia, in the experiment with A498 renal and in the experiment with K-562 leukemia was more than 100 µM in each case. In addition, the TGI in the experiment on SF-268 CNS, in the experiment with HCC-2998 colon, in the experiment with KM12 colon and in the experiment with UACC-257 melanoma was more than 100 µM each time.
Consider `Cc1cc(=O)oc2c(C3=NN(C=O)C(c4ccccc4)C3)c(O)ccc12` (configuration not stated), for which the TGI with NCI-H226 lung was more than 100 µM; with SW-620 colon, more than 100 µM; in the experiment with UACC-62 melanoma, more than 100 µM; in the experiment with CCRF-CEM leukemia it was more than 100 µM; in the experiment with A498 renal, more than 92.9 µM; in the experiment on K-562 leukemia it was more than 100 µM. In addition, the TGI in the experiment with SF-268 CNS, in the experiment on HCC-2998 colon, in the experiment on KM12 colon and in the experiment on UACC-257 melanoma was more than 100 µM in each case.
With `CCCCCCCCCCC(=O)CCCCCCC(=O)O`, the TGI in the experiment with NCI-H226 lung is more than 100 µM; in the experiment with SW-620 colon it was 55.7 µM; in the experiment with UACC-62 melanoma, 35.5 µM; in the experiment with CCRF-CEM leukemia, 73.8 µM; in the experiment with A498 renal it was 42.7 µM; with K-562 leukemia, 26.9 µM. Also, the TGI in the experiment with SF-268 CNS was more than 100 µM; with HCC-2998 colon, 36.1 µM; in the experiment on KM12 colon, 29.9 µM; in the experiment with UACC-257 melanoma, more than 100 µM.

Broadly, the GI50 is the concentration giving 50% growth inhibition. As usually defined, the TGI is the concentration at which net growth stops.

The values are drawn from PubChem BioAssay (NCI).
